Patent US20120071506A1, “METHODS FOR TREATING CNS DISORDERS WITH BICYCLO-SUBSTITUTED 2-IMIDAZOLINE AND 2-IMIDAZOLES” (priority 2006, published 2012)
Counter-ions that a name gives are not always drawn.

Columns and labels:
[1] = biological target: T1, mouse TAAR1 (Mus musculus, UniProt Q923Y8); experiment: Radioligand binding with [3H]-rac-2-(1,2,3,4-tetrahydro-1-naphthyl)-2-imidazoline on membranes of HEK293 cells stably expressing TAAR1; conditions: for Ki: mouse TAAR1, competition with [3H]-rac-2-(1,2,3,4-tetrahydro-1-naphthyl)-2-imidazoline at 60 nM, 4° C., 30 min
T1 construct: expressed in transfected cells; host or cells: HEK293 cells (ATCC # CRL-1573), stably transfected with pIRESneo2 expression plasmid; membrane preparation
Experimental: For the construction of expression plasmids the coding sequences of human, rat and mouse TAAR 1 were amplified from genomic DNA essentially as described by Lindemann et al.. The Expand High Fidelity PCR System (Roche Diagnostics) was used with 1.5 mM Mg^2+ and purified PCR products were cloned into pCR2.1-TOPO cloning vector (Invitrogen) following the instructions of the manufacturer. PCR products were subcloned into the pIRESneo2 vector (BD Clontech, Palo Alto, Calif.), and expression vectors were sequence verified before introduction in cell lines.
HEK293 cells (ATCC # CRL-1573) were cultured essentially as described Lindemann et al. (2005). For the generation of stably transfected cell lines HEK293 cells were transfected with the pIRESneo2 expression plasmids containing the TAAR coding sequences (described above) with Lipofectamine 2000 (Invitrogen) according to the instructions of the manufacturer, and 24 hrs post transfection the culture medium was supplemented with 1 mg/ml G418 (Sigma, Buchs, Switzerland). After a culture period of about 10 d clones were isolated, expanded and tested for responsiveness to trace amines (all compounds purchased from Sigma) with the cAMP Biotrak Enzyme immunoassay (EIA) System (Amersham) following the non-acetylation EIA procedure provided by the manufacturer.
Cells at confluence were rinsed with ice-cold phosphate buffered saline without Ca^2+ and Mg^2+ containing 10 mM EDTA and pelleted by centrifugation at 1000 rpm for 5 min at 4° C. The pellet was then washed twice with ice-cold phosphate buffered saline and cell pellet was frozen immediately by immersion in liquid nitrogen and stored until use at −80° C. Cell pellet was then suspended in 20 ml HEPES-NaOH (20 mM), pH 7.4 containing 10 mM EDTA, and homogenized with a Polytron (PT 3000, Kinematica) at 10,000 rpm for 10 s. The homogenate was centrifuged at 48,000×g for 30 min at 4° C. and the pellet resuspended in 20 ml HEPES-NaOH (20 mM), pH 7.4 containing 0.1 mM EDTA (buffer A), and homogenized with a Polytron at 10,000 rpm for 10 s. The homogenate was then centrifuged at 48,000×g for 30 min at 4° C. and the pellet resuspended in 20 ml buffer A, and homogenized with a Polytron at 10,000 rpm for 10 s. Protein concentration was determined by the method of Pierce (Rockford, Ill.). The homogenate was then centrifuged at 48,000×g for 10 min at 4° C., resuspended in HEPES-NaOH (20 mM), pH 7.0 including MgCl2 (10 mM) and […] homogenized with a Polytron at 10,000 rpm for 10 s.
Binding assay was performed at 4° C. in a final volume of 1 ml, and with an incubation time of 30 min. The radioligand [^3H]-rac-2-(1,2,3,4-tetrahydro-1-naphthyl)-2-imidazoline was used at a concentration equal to the calculated Kd value of 60 nM to give a bound at around 0.1% of the total added radioligand concentration, and a specific binding which represented approximately 70-80% of the total binding. Non-specific binding was defined as the amount of [^3H]-rac-2-(1,2,3,4-tetrahydro-1-naphthyl)-2-imidazoline bound in the presence of the appropriate unlabelled ligand (10 μM). Competing ligands were tested in a wide range of concentrations (10 pM-30 μM). […] Each experiment was performed in duplicate. All incubations were terminated by rapid filtration through UniFilter-96 plates (Packard Instrument Company) and glass filter GF/C, pre-soaked for at least 2 h in polyethylenimine 0.3%, and using a Filtermate 96 Cell Harvester (Packard Instrument Company). The tubes and filters were then washed 3 times with 1 ml aliquots of cold buffer B. Filters were not dried and soaked in Ultima gold (45 μl/well, Packard Instrument Company) and bound radioactivity was counted by a TopCount Microplate Scintillation Counter (Packard Instrument Company).

T1 sequence (Q923Y8 whole entry): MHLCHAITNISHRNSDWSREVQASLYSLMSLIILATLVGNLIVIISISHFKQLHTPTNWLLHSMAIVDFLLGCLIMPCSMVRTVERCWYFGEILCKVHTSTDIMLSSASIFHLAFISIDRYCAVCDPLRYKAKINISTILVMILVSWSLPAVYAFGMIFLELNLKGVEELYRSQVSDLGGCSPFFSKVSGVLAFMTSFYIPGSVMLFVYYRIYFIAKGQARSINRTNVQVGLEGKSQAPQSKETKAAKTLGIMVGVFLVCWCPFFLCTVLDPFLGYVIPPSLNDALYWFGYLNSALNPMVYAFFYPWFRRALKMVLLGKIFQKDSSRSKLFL

For Brc1ccc2c(c1)C(C1=NCCN1)CCC2 (racemic), the melting point was 156 to 158 °C.
Brc1cccc2c1CCCC2C1=NCCN1 (racemic) [Example 1, rac-2-(5-Bromo-1,2,3,4-tetrahydro-naphthalen-1-yl)-4,5-dihydro-1H-imidazole] gave a Ki [1] of 0.009 µM.
Molecule Cc1cc(C)c2c(c1)C(C1=NCCN1)CCC2 (racemic) [Example 2, rac-2-(5,7-Dimethyl-1,2,3,4-tetrahydro-naphthalen-1-yl)-4,5-dihydro-1H-imidazole] has a Ki [1] of 0.011 µM.
For Fc1cc(Cl)cc2c1CCCC2C1=NCCN1 (racemic) [Example 3, rac-2-(7-Chloro-5-fluoro-1,2,3,4-tetrahydro-naphthalen-1-yl)-4,5-dihydro-1H-imidazole], the Ki [1] was 0.054 µM.
Cc1cc(C)c2c(c1)C(c1ncc[nH]1)CCC2 (racemic) [Example 10, rac-2-(5,7-Dimethyl-1,2,3,4-tetrahydro-naphthalen-1-yl)-1H-imidazole] showed a Ki [1] of 0.013 µM and a melting point of 161 to 163 °C.
With c1ccc2c(c1)OCCC2C1=NCCN1 (racemic) [Example 11, rac-2-Chroman-4-yl-4,5-dihydro-1H-imidazole] the Ki [1] was 0.017 µM.
With c1ccc2c(c1)OCCC2c1ncc[nH]1 (racemic) [Example 12, rac-2-Chroman-4-yl-1H-imidazole] the Ki [1] was 0.054 µM.
With Clc1ccc2c(c1)CCCC2C1=NCCN1 (racemic) [Example 18, rac-2-(6-chloro-1,2,3,4-tetrahydro-naphthalen-1-yl)-4,5-dihydro-1H-imidazole] the Ki [1] was 0.058 µM.
With Clc1cccc2c1CCCC2C1=NCCN1 (racemic) [Example 19, rac-2-(5-chloro-1,2,3,4-tetrahydro-naphthalen-1-yl)-4,5-dihydro-1H-imidazole] the Ki [1] was 0.013 µM.
COc1ccc2c(c1)C(C1=NCCN1)CCC2 (racemic) [Example 20, rac-2-(7-Methoxy-1,2,3,4-tetrahydro-naphthalen-1-yl)-4,5-dihydro-1H-imidazole] showed a Ki [1] of 0.051 µM.
COc1ccc2c(c1)CCCC2C1=NCCN1 (racemic) [Example 21, rac-2-(6-methoxy-1,2,3,4-tetrahydro-naphthalen-1-yl)-4,5-dihydro-1H-imidazole] showed a Ki [1] of 0.009 µM.
COc1cccc2c1CCCC2C1=NCCN1 (racemic) [Example 22, rac-2-(5-methoxy-1,2,3,4-tetrahydro-naphthalen-1-yl)-4,5-dihydro-1H-imidazole] showed a Ki [1] of 0.025 µM.
Work on Clc1cc(Cl)c2c(c1)C(c1ncc[nH]1)CCO2 (racemic) [Example 36, rac-2-(6,8-Dichloro-chroman-4-yl)-1H-imidazole] yielded a Ki [1] of 0.053 µM.
In the case of c1ccc2c(c1)NCCC2c1ncc[nH]1 (racemic) [Example 41, rac-4-(1H-Imidazol-2-yl)-1,2,3,4-tetrahydro-quinoline], the Ki [1] is reported as 0.061 µM.
Molecule c1ccc2c(c1)CCCC2c1c[nH]cn1 (racemic) [Example 56, rac-4-(1,2,3,4-Tetrahydro-naphthalen-1-yl)-1H-imidazole] has a Ki [1] of 0.006 µM.
Cc1ccc2c(c1)OCCC2c1cnc[nH]1 (racemic) [Example 60, rac-5-(7-Methyl-chroman-4-yl)-1H-imidazole or tautomer] showed a Ki [1] of 0.008 µM.
With Fc1ccc2c(c1)C(c1cnc[nH]1)CCO2 (racemic) [Example 62, rac-5-(6-Fluoro-chroman-4-yl)-1H-imidazole or tautomer] the Ki [1] was 0.004 µM.
Fc1ccc2c(c1)OCCC2c1cnc[nH]1 (racemic) [Example 65, rac-5-(7-Fluoro-chroman-4-yl)-1H-imidazole or tautomer] showed a Ki [1] of 0.004 µM.
Molecule Cc1cccc2c1C(c1cnc[nH]1)CCO2 (racemic) [Example 66, rac-5-(5-Methyl-chroman-4-yl)-1H-imidazole or tautomer] has a Ki [1] of 0.037 µM.
With Fc1cccc2c1C(c1cnc[nH]1)CCO2 (racemic) [Example 67, rac-5-(5-Fluoro-chroman-4-yl)-1H-imidazole or tautomer] the Ki [1] was 0.032 µM.
c1ccc2c(c1)OCCC2c1cnc[nH]1 (racemic) [Example 69, rac-5-Chroman-4-yl-1H-imidazole hydrochloride or tautomer] gave a Ki [1] of 0.025 µM.
Work on c1ccc2c(c1)CCCC2C1=NCCN1 (racemic) [[^3H]-rac-2-(1,2,3,4-tetrahydro-1-naphthyl)-2-imidazoline, reference compound] yielded a Kd ([1]; radioligand used at a concentration equal to its calculated Kd, species of TAAR1 not given) of 0.06 µM.
For C1=C(c2cnc[nH]2)c2ccccc2CC1 [Example 55], the Ki [1] was 0.011 µM.
In the case of Clc1cccc2c1OCC=C2c1cnc[nH]1 [Example 63, 5-(8-Chloro-2H-chromen-4-yl)-1H-imidazole or tautomer], the Ki [1] is reported as 0.02 µM.
For Clc1ccc2c(c1)C(c1cnc[nH]1)=CCO2 [Example 64, 5-(6-Chloro-2H-chromen-4-yl)-1H-imidazole or tautomer], the Ki [1] was 0.016 µM.
